The source of these data is ChEMBL document CHEMBL3414527, “Engineering potent and selective analogues of GpTx-1, a tarantula venom peptide antagonist of the Na(V)1.7 sodium channel” (J Med Chem, 2015).

Bridge positions count the residues as written; N and C are the ends. Peptide text beside a SMILES is read from it.

Sodium channel protein type 5 subunit alpha, sequence (Q14524 whole entry): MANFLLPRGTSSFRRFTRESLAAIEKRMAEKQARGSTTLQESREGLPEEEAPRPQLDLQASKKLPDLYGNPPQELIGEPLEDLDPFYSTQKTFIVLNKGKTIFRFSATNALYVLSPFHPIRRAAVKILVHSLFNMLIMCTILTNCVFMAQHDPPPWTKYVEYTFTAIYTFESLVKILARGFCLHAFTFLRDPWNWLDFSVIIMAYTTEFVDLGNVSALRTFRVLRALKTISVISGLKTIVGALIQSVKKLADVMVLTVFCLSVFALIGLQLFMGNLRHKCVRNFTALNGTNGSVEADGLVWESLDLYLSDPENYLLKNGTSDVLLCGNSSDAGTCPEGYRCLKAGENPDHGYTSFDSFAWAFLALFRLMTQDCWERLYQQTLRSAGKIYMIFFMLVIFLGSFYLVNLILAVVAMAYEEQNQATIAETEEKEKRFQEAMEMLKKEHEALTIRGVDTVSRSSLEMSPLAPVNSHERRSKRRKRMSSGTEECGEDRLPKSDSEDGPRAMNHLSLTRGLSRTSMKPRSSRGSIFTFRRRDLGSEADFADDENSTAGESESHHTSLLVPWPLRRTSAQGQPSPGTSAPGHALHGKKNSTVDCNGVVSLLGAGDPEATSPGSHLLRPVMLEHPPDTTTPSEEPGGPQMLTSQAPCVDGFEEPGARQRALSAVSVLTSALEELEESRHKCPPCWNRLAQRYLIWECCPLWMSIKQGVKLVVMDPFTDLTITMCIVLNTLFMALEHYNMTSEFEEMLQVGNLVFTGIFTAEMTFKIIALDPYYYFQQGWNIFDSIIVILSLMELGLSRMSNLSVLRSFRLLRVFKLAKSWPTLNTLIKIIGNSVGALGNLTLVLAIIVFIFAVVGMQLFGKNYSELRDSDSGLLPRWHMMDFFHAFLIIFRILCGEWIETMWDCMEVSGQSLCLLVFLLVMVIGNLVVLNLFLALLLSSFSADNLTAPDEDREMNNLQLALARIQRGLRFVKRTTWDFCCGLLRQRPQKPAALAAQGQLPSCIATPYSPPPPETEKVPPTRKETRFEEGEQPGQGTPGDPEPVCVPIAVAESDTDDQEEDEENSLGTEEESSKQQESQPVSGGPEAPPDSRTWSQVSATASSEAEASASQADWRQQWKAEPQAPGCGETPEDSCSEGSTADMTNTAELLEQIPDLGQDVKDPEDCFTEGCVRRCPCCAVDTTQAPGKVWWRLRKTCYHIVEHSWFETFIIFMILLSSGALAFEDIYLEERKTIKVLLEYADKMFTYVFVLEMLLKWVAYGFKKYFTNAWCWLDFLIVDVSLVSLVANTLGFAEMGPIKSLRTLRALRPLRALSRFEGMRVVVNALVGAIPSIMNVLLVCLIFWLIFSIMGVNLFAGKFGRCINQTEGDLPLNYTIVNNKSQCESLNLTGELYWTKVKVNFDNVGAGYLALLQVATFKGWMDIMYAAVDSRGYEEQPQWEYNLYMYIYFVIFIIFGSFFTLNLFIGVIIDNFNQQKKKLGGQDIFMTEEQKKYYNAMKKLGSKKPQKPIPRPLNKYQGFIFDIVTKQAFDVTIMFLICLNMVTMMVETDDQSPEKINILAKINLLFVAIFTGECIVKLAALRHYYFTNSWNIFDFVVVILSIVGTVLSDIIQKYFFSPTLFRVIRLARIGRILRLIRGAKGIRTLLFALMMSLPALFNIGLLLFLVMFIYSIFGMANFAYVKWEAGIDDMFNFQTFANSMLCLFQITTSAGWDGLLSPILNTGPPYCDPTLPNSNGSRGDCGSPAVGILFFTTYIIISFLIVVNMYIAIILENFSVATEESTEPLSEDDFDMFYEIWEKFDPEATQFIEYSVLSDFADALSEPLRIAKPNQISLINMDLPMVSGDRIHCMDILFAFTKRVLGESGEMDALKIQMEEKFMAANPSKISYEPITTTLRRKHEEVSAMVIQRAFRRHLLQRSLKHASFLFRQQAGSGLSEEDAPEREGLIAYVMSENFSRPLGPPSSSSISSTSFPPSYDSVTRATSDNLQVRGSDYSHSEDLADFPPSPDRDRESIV

The test addresses Sodium channel protein type 5 subunit alpha (Homo sapiens, UniProt Q14524). Description: Inhibition of human NaV1.5 at -140 mV holding potential by whole-cell patch clamp assay. A general note: Patch clamp records ionic current or voltage across a cell membrane.
As to `CC[C@H](C)[C@@H]1NC(=O)[C@@H]2CSSC[C@@H]3NC(=O)[C@H](C(C)C)NC(=O)[C@H](CC(C)C)NC(=O)[C@H](CC(N)=O)NC(=O)[C@@H]4CCCN4C(=O)[C@H](CCCNC(=N)N)NC(=O)[C@H](CSSC[C@H](NC(=O)[C@@H](N)CC(=O)O)C(=O)N[C@@H](CC(C)C)C(=O)NCC(=O)N[C@@H](Cc4ccccc4)C(=O)N[C@@H](CCSC)C(=O)N[C@@H](C)C(=O)N[C@@H](CCCCN)C(=O)N2)NC(=O)[C@H](CSSC[C@@H](C(=O)N[C@@H](CCCCN)C(=O)N[C@@H](Cc2ccc(O)cc2)C(=O)N[C@H](C(=O)N[C@@H](Cc2ccccc2)C(N)=O)C(C)C)NC(=O)[C@H](Cc2c[nH]c4ccccc24)NC(=O)[C@H](CCCCN)NC(=O)[C@H](Cc2cnc[nH]2)NC(=O)[C@H]([C@@H](C)O)NC(=O)[C@H](CCCNC(=N)N)NC(=O)[C@H](CO)NC3=O)NC(=O)[C@H](CCCCN)NC(=O)[C@H](CC(=O)O)NC(=O)[C@H](CC(N)=O)NC(=O)[C@H](CC(=O)O)NC(=O)[C@@H]2CCCN2C1=O` (H-DCLGFMAKCIPDNDKCCRPNLVCSRTHKWCKYVF-NH2; disulfide 2-17, 9-23, 16-30), the half-inhibitory concentration (IC50) (usually the concentration that gives 50% inhibition) is above 5 µM.

Molecule `CC[C@H](C)[C@@H]1NC(=O)[C@@H]2CSSC[C@@H]3NC(=O)[C@H](C(C)C)NC(=O)[C@H](CC(C)C)NC(=O)[C@H](CC(N)=O)NC(=O)[C@@H]4CCCN4C(=O)[C@H](CCCNC(=N)N)NC(=O)[C@H](CSSC[C@H](NC(=O)[C@@H](N)CC(=O)O)C(=O)N[C@@H](CC(C)C)C(=O)NCC(=O)N[C@@H](Cc4ccccc4)C(=O)N[C@@H](CCSC)C(=O)N[C@@H](CCCNC(=N)N)C(=O)N[C@@H](CCCCN)C(=O)N2)NC(=O)[C@H](CSSC[C@@H](C(=O)N[C@@H](CCCCN)C(=O)N[C@@H](C)C(=O)N[C@H](C(=O)N[C@@H](Cc2ccccc2)C(N)=O)C(C)C)NC(=O)[C@H](Cc2c[nH]c4ccccc24)NC(=O)[C@H](CCCCN)NC(=O)[C@H](Cc2cnc[nH]2)NC(=O)[C@H]([C@@H](C)O)NC(=O)[C@H](CCCNC(=N)N)NC(=O)[C@H](CO)NC3=O)NC(=O)[C@H](CCCCN)NC(=O)[C@H](CC(=O)O)NC(=O)[C@H](CC(N)=O)NC(=O)[C@H](CC(=O)O)NC(=O)[C@@H]2CCCN2C1=O` (H-DCLGFMRKCIPDNDKCCRPNLVCSRTHKWCKAVF-NH2; disulfide 2-17, 9-23, 16-30) gave a half-maximal inhibitory concentration (IC50) above 5 µM.

`CC[C@H](C)[C@@H]1NC(=O)[C@@H]2CSSC[C@@H]3NC(=O)[C@H](C(C)C)NC(=O)[C@H](CC(C)C)NC(=O)[C@H](CC(N)=O)NC(=O)[C@@H]4CCCN4C(=O)[C@H](CCCNC(=N)N)NC(=O)[C@H](CSSC[C@H](NC(=O)[C@H](CC(=O)O)NC(=O)[C@H](C)N)C(=O)N[C@@H](CC(C)C)C(=O)NCC(=O)N[C@@H](Cc4ccccc4)C(=O)N[C@@H](CCSC)C(=O)N[C@@H](CCCNC(=N)N)C(=O)N[C@@H](CCCCN)C(=O)N2)NC(=O)[C@H](CSSC[C@@H](C(=O)N[C@@H](CCCCN)C(=O)N[C@@H](Cc2ccc(O)cc2)C(=O)N[C@H](C(=O)N[C@@H](Cc2ccccc2)C(N)=O)C(C)C)NC(=O)[C@H](Cc2c[nH]c4ccccc24)NC(=O)[C@H](CCCCN)NC(=O)[C@H](Cc2cnc[nH]2)NC(=O)[C@H]([C@@H](C)O)NC(=O)[C@H](CCCNC(=N)N)NC(=O)[C@H](CO)NC3=O)NC(=O)[C@H](CCCCN)NC(=O)[C@H](CC(=O)O)NC(=O)[C@H](CC(N)=O)NC(=O)[C@H](CC(=O)O)NC(=O)[C@@H]2CCCN2C1=O` gave an IC50 above 5 µM.

Molecule `CC[C@H](C)[C@@H]1NC(=O)[C@@H]2CSSC[C@@H]3NC(=O)[C@H](C(C)C)NC(=O)[C@H](CC(C)C)NC(=O)[C@H](CC(N)=O)NC(=O)[C@@H]4CCCN4C(=O)[C@H](CCCNC(=N)N)NC(=O)[C@H](CSSC[C@H](NC(=O)[C@@H](N)CC(=O)O)C(=O)N[C@@H](CC(C)C)C(=O)NCC(=O)N[C@@H](Cc4ccccc4)C(=O)N[C@@H](CCSC)C(=O)N[C@@H](CCCNC(=N)N)C(=O)N[C@@H](CCCCN)C(=O)N2)NC(=O)[C@H](CSSC[C@@H](C(=O)N[C@@H](CCCCN)C(=O)N[C@@H](Cc2ccc(O)cc2)C(=O)N[C@H](C(=O)N[C@@H](Cc2ccccc2)C(N)=O)C(C)C)NC(=O)[C@H](Cc2c[nH]c4ccccc24)NC(=O)[C@H](CCCCN)NC(=O)[C@H](Cc2cnc[nH]2)NC(=O)[C@H](CCCNC(=N)N)NC(=O)[C@H](CCCNC(=N)N)NC(=O)[C@H](CO)NC3=O)NC(=O)[C@H](CCCCN)NC(=O)[C@H](CC(=O)O)NC(=O)[C@H](CC(N)=O)NC(=O)[C@H](CC(=O)O)NC(=O)[C@@H]2CCCN2C1=O` (H-DCLGFMRKCIPDNDKCCRPNLVCSRRHKWCKYVF-NH2; disulfide 2-17, 9-23, 16-30) showed an IC50 of 0.5 µM. That is a sub-micromolar value.

Regarding `CC[C@H](C)[C@@H]1NC(=O)[C@@H]2CSSC[C@@H]3NC(=O)[C@H](C(C)C)NC(=O)[C@H](CC(C)C)NC(=O)[C@H](CC(N)=O)NC(=O)[C@@H]4CCCN4C(=O)[C@H](CCCNC(=N)N)NC(=O)[C@H](CSSC[C@H](NC(=O)[C@@H](N)CC(=O)O)C(=O)N[C@@H](CC(C)C)C(=O)NCC(=O)N[C@@H](C)C(=O)N[C@@H](Cc4ccccc4)C(=O)N[C@@H](CCCNC(=N)N)C(=O)N[C@@H](CCCCN)C(=O)N2)NC(=O)[C@H](CSSC[C@@H](C(=O)N[C@@H](CCCCN)C(=O)N[C@@H](Cc2ccc(O)cc2)C(=O)N[C@H](C(=O)N[C@@H](Cc2ccccc2)C(N)=O)C(C)C)NC(=O)[C@H](Cc2c[nH]c4ccccc24)NC(=O)[C@H](CCCCN)NC(=O)[C@H](Cc2cnc[nH]2)NC(=O)[C@H](CC(C)C)NC(=O)[C@H](CCCNC(=N)N)NC(=O)[C@H](CO)NC3=O)NC(=O)[C@H](CCCCN)NC(=O)[C@H](CC(=O)O)NC(=O)[C@H](CC(N)=O)NC(=O)[C@H](CC(=O)O)NC(=O)[C@@H]2CCCN2C1=O` (H-DCLGAFRKCIPDNDKCCRPNLVCSRLHKWCKYVF-NH2; disulfide 2-17, 9-23, 16-30), the IC50 was above 10 µM.

Turning to `CC[C@H](C)[C@@H]1NC(=O)[C@@H]2CSSC[C@@H]3NC(=O)[C@H](C(C)C)NC(=O)[C@H](CC(C)C)NC(=O)[C@H](CC(N)=O)NC(=O)[C@@H]4CCCN4C(=O)[C@H](CCCNC(=N)N)NC(=O)[C@H](CSSC[C@H](NC(=O)[C@@H](N)CC(=O)O)C(=O)N[C@@H](CC(C)C)C(=O)NCC(=O)N[C@@H](Cc4ccccc4)C(=O)N[C@@H](CCSC)C(=O)N[C@@H](CCCNC(=N)N)C(=O)N[C@@H](CCCCN)C(=O)N2)NC(=O)[C@H](CSSC[C@@H](C(=O)N[C@@H](CCCCN)C(=O)N[C@@H](Cc2ccc(O)cc2)C(=O)N[C@H](C(=O)N[C@@H](Cc2ccccc2)C(=O)N[C@@H](C)C(N)=O)C(C)C)NC(=O)[C@H](Cc2c[nH]c4ccccc24)NC(=O)[C@H](CCCCN)NC(=O)[C@H](Cc2cnc[nH]2)NC(=O)[C@H]([C@@H](C)O)NC(=O)[C@H](CCCNC(=N)N)NC(=O)[C@H](CO)NC3=O)NC(=O)[C@H](CCCCN)NC(=O)[C@H](CC(=O)O)NC(=O)[C@H](CC(N)=O)NC(=O)[C@H](CC(=O)O)NC(=O)[C@@H]2CCCN2C1=O`, the IC50 was above 5 µM.

Consider `CC[C@H](C)[C@@H]1NC(=O)[C@@H]2CSSC[C@@H]3NC(=O)[C@H](C(C)C)NC(=O)[C@H](CC(C)C)NC(=O)[C@H](CC(N)=O)NC(=O)[C@@H]4CCCN4C(=O)[C@H](CCCNC(=N)N)NC(=O)[C@H](CSSC[C@H](NC(=O)[C@@H](N)CC(=O)O)C(=O)N[C@@H](CC(C)C)C(=O)NCC(=O)N[C@@H](CCSC)C(=O)N[C@@H](CCSC)C(=O)N[C@@H](CCCNC(=N)N)C(=O)N[C@@H](CCCCN)C(=O)N2)NC(=O)[C@H](CSSC[C@@H](C(=O)N[C@@H](CCCCN)C(=O)N[C@@H](Cc2ccc(O)cc2)C(=O)N[C@H](C(=O)N[C@@H](Cc2ccccc2)C(N)=O)C(C)C)NC(=O)[C@H](Cc2c[nH]c4ccccc24)NC(=O)[C@H](CCCCN)NC(=O)[C@H](Cc2cnc[nH]2)NC(=O)[C@H]([C@@H](C)O)NC(=O)[C@H](CCCNC(=N)N)NC(=O)[C@H](CO)NC3=O)NC(=O)[C@H](CCCCN)NC(=O)[C@H](CC(=O)O)NC(=O)[C@H](CC(N)=O)NC(=O)[C@H](CC(=O)O)NC(=O)[C@@H]2CCCN2C1=O` (H-DCLGMMRKCIPDNDKCCRPNLVCSRTHKWCKYVF-NH2; disulfide 2-17, 9-23, 16-30), for which the IC50 is above 10 µM.

In the case of `CC[C@H](C)[C@@H]1NC(=O)[C@@H]2CSSC[C@@H]3NC(=O)[C@H](C(C)C)NC(=O)[C@H](CC(C)C)NC(=O)[C@H](CC(N)=O)NC(=O)[C@@H]4CCCN4C(=O)[C@H](CCCNC(=N)N)NC(=O)[C@H](CSSC[C@H](NC(=O)[C@@H](N)CC(=O)O)C(=O)N[C@@H](CC(C)C)C(=O)NCC(=O)NCC(=O)N[C@@H](CCSC)C(=O)N[C@@H](CCCNC(=N)N)C(=O)N[C@@H](CCCCN)C(=O)N2)NC(=O)[C@H](CSSC[C@@H](C(=O)N[C@@H](CCCCN)C(=O)N[C@@H](Cc2ccc(O)cc2)C(=O)N[C@H](C(=O)N[C@@H](Cc2ccccc2)C(N)=O)C(C)C)NC(=O)[C@H](Cc2c[nH]c4ccccc24)NC(=O)[C@H](CCCCN)NC(=O)[C@H](Cc2cnc[nH]2)NC(=O)[C@H]([C@@H](C)O)NC(=O)[C@H](CCCNC(=N)N)NC(=O)[C@H](CO)NC3=O)NC(=O)[C@H](CCCCN)NC(=O)[C@H](CC(=O)O)NC(=O)[C@H](CC(N)=O)NC(=O)[C@H](CC(=O)O)NC(=O)[C@@H]2CCCN2C1=O` (H-DCLGGMRKCIPDNDKCCRPNLVCSRTHKWCKYVF-NH2; disulfide 2-17, 9-23, 16-30), the IC50 was above 10 µM.

`CC[C@H](C)[C@@H]1NC(=O)[C@@H]2CSSC[C@@H]3NC(=O)[C@H](C(C)C)NC(=O)[C@H](CC(C)C)NC(=O)[C@H](CC(N)=O)NC(=O)[C@@H]4CCCN4C(=O)[C@H](CCCNC(=N)N)NC(=O)[C@H](CSSC[C@H](NC(=O)[C@H](C)N)C(=O)N[C@@H](CC(C)C)C(=O)NCC(=O)N[C@@H](Cc4ccccc4)C(=O)N[C@@H](CCSC)C(=O)N[C@@H](CCCNC(=N)N)C(=O)N[C@@H](CCCCN)C(=O)N2)NC(=O)[C@H](CSSC[C@@H](C(=O)N[C@@H](CCCCN)C(=O)N[C@@H](Cc2ccc(O)cc2)C(=O)N[C@H](C(=O)N[C@@H](Cc2ccccc2)C(N)=O)C(C)C)NC(=O)[C@H](Cc2c[nH]c4ccccc24)NC(=O)[C@H](CCCCN)NC(=O)[C@H](Cc2cnc[nH]2)NC(=O)[C@H]([C@@H](C)O)NC(=O)[C@H](CCCNC(=N)N)NC(=O)[C@H](CO)NC3=O)NC(=O)[C@H](CCCCN)NC(=O)[C@H](CC(=O)O)NC(=O)[C@H](CC(N)=O)NC(=O)[C@H](CC(=O)O)NC(=O)[C@@H]2CCCN2C1=O` (H-ACLGFMRKCIPDNDKCCRPNLVCSRTHKWCKYVF-NH2; disulfide 2-17, 9-23, 16-30): the IC50 is above 5 µM.
